These compounds were tested against T1, Calf polymerase alpha (Bos taurus, UniProt A0AAA9TD94) (assay: Calf polymerase alpha inhibition (Replizyme kit)). Conditions: at 10 μM, single point screening.
T1 construct: purchased Replizyme Ltd (Heslington, York, UK)
T1 sequence (A0AAA9TD94 1-1441): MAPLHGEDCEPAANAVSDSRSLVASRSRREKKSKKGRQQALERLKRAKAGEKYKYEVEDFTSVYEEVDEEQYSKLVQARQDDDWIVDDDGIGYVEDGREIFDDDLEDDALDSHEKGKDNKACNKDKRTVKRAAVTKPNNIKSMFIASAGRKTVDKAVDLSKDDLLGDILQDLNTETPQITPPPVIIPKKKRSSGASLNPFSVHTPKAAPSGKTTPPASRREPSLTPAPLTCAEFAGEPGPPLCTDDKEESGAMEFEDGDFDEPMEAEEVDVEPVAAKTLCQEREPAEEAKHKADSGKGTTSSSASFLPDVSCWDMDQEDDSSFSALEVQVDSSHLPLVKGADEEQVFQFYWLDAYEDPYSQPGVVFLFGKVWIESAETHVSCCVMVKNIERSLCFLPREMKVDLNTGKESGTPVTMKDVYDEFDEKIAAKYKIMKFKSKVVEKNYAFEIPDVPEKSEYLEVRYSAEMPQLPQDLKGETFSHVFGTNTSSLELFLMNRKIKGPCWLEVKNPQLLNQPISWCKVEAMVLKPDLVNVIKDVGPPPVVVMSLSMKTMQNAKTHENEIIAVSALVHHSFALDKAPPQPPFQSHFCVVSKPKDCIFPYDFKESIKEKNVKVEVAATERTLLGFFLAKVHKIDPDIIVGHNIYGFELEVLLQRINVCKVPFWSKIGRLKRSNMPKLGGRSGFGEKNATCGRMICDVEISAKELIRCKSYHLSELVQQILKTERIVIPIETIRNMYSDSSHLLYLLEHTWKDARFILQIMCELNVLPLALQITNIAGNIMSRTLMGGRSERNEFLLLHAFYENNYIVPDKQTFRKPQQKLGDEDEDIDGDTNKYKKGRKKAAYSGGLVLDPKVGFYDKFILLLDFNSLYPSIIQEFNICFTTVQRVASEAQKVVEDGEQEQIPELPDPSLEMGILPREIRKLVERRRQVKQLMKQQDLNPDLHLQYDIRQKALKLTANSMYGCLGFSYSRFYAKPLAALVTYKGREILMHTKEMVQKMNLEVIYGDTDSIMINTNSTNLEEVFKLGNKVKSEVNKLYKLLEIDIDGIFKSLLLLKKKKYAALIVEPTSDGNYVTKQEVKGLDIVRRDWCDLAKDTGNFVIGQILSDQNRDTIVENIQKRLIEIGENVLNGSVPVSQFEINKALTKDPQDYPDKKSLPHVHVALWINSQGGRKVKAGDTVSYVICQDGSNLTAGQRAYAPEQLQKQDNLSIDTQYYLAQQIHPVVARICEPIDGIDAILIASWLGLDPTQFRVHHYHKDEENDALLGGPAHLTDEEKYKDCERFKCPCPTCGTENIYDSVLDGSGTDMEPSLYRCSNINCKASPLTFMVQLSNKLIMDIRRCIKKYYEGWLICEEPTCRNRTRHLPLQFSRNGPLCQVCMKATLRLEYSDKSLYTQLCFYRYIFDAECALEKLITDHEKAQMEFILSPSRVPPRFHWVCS
Type: biochemical
Procedure: Calf polymerase alpha and human polymerase alpha investigations were performed with a kit available from Replizyme Ltd (Heslington, York, UK).

Row | Compound | % Inhibition [%] | inhibition at 10 µM [%]
1 | Cc1ccc(NC(=O)[C@H](CCCCN)NC(=O)Nc2ccc(CCc3ccccc3)cc2)cc1 [Compound 243, (S)-6-AMINO-2-[3-(4-PHENETHYL-PHENYL)-UREIDO]-HEXANOIC ACID P-TOLYLAMIDE] | 0 | 
2 | Cc1ccc(NC(=O)[C@H](CCCCN)NC(=O)Nc2ccc(OCc3ccccc3F)cc2)cc1 [Compound 248, (S)-6-AMINO-2-{3-[4-(2-FLUORO-BENZYLOXY)-PHENYL]-UREIDO}-HEXANOIC ACID P-TOLYLAMIDE] | 61 | 
3 | Cc1ccc(NC(=O)[C@H](CCCCN)NC(=O)Nc2ccc(OCc3cccc(F)c3)cc2)cc1 [Compound 249, (S)-6-AMINO-2-{3-[4-(3-FLUORO-BENZYLOXY)-PHENYL]-UREIDO}-HEXANOIC ACID P-TOLYLAMIDE] | 67 | 
4 | Cc1ccc(NC(=O)[C@H](CCCCN)NC(=O)Nc2ccc(OCc3ccc(F)cc3)cc2)cc1 [Compound 250, (S)-6-AMINO-2-{3-[4-(4-FLUORO-BENZYLOXY)-PHENYL]-UREIDO}-HEXANOIC ACID P-TOLYLAMIDE] | 57 | 
5 | Cc1ccc(NC(=O)[C@H](CCCCN)NC(=O)Nc2ccc(OCc3cccnc3)cc2)cc1 [Compound 261, (S)-6-AMINO-2-{3-[4-(PYRIDIN-3-YLMETHOXY)-PHENYL]-UREIDO}-HEXANOIC ACID P-TOLYLAMIDE] | 55 | 
6 | NCCCCCCNC(=O)[C@H](Cc1ccccc1)NC(=O)Nc1ccc(OCc2ccccc2)cc1 [Compound 263, (S)—N-(6-AMINO-HEXYL)-2-[3-(4-BENZYLOXY-PHENYL)-UREIDO]-3-PHENYL-PROPIONAMIDE] |  | 31
7 | Cc1ccc(NC(=O)[C@H](CNC(=O)CN)NC(=O)Nc2ccc(OCc3ccccc3)cc2)cc1 [Compound 268, (S)-3-(2-AMINO-ACETYLAMINO)-2-[3-(4-BENZYLOXY-PHENYL)-UREIDO]-N-P-TOLYL-PROPIONAMIDE] | 62.7 | 
8 | Cc1ccc(NC(=O)CN(CCCCN)C(=O)Nc2ccc(OCc3ccccc3)cc2)cc1 [Compound 278, 2-[1-(4-AMINO-BUTYL)-3-(4-BENZYLOXY-PHENYL)-UREIDO]-N-P-TOLYL-ACETAMIDE] | 101 | 
9 | Cc1ccc(NC(=O)[C@H](CCCCN)NC(=O)Nc2ccc(OCc3ccncc3)cc2)cc1 [Compound 279, (S)-6-AMINO-2-{3-[4-(PYRIDIN-4-YLMETHOXY)-PHENYL]-UREIDO}-HEXANOIC ACID P-TOLYLAMIDE] | 15 | 
10 | NCCCCN(CC(=O)Nc1cccc2[nH]ccc12)C(=O)Nc1ccc(OCc2ccccc2)cc1 [Compound 281, 2-[1-(4-AMINO-BUTYL)-3-(4-BENZYLOXY-PHENYL)-UREIDO]-N-(1H-INDOL-4-YL)-ACETAMIDE] |  | 30.5
11 | Cc1ccc(NC(=O)C(CCCCN)NC(=O)OCC2c3ccccc3-c3ccccc32)cn1 (stereo not shown) [Compound 294, [5-AMINO-1-(6-METHYL-PYRIDIN-3-YLCARBAMOYL)-PENTYL]-CARBAMIC ACID 9H-FLUOREN-9-YLMETHYL ESTER] |  | 19
12 | NCCCCCCNC(=O)[C@@H](NC(=O)OCC1c2ccccc2-c2ccccc21)c1ccccc1 [Compound 313, (S)-[(6-AMINO-HEXYLCARBAMOYL)-PHENYL-METHYL]-CARBAMIC ACID 9H-FLUOREN-9-YLMETHYL ESTER] |  | 43

Same assay, conditions: dose response

Row | Compound | IC50 [µM]
13 | NCCCCN(CC(=O)Nc1cccc2[nH]ccc12)C(=O)Nc1ccc(OCc2ccccc2)cc1 [Compound 281, 2-[1-(4-AMINO-BUTYL)-3-(4-BENZYLOXY-PHENYL)-UREIDO]-N-(1H-INDOL-4-YL)-ACETAMIDE] | 9.2
